{"source": "paper PMC9481533", "about": "“Structure-based discovery of small molecules that disaggregate Alzheimer’s disease tissue derived tau fibrils in vitro” (Nature Communications, 2022)", "biological_target": "crude AD brain extracts (tau seeds) in HEK293T tau biosensor cells (Homo sapiens, UniProt P10636)", "sequence (P10636 623-695 limits assumed)": "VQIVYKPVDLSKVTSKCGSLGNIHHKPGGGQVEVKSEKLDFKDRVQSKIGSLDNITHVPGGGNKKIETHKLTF", "experiment": "Tau biosensor cell seeding assay, screen with crude AD brain extracts", "format": "cell-based", "settings": "10 μM inhibitor on cells, seeds pre-incubated 16–18 h at 4 °C, individual replicates (n=3), DMSO control 10734.9/12808.5/11145.3", "text": "From the in silico screen, compounds were ranked and 46 were selected for further experimental validation based on the total binding energy of the ligand/fibril complex. The experimental assessment consisted of direct measures of fibril disassembly (Fig. 2d, e and Supplementary Table 3) and assessment of the seeding capability of the products of disassembled AD tau fibrils in a biosensor cell assay. Disaggregating molecules that produce active seeds are undesirable for therapy and are excluded from further study. HEK293T cells expressing CFP- or YFP-fused tau are transduced with exogenous AD tau fibrils. Externally applied AD-tau fibrils then induce the aggregation of the endogenous fluorescent tau, resulting in the formation of FRET-positive intracellular aggregates, visible as bright puncta by fluorescence microscopy (Fig. 2f). Automated image analysis of visible puncta provides an objective quantification of seeded aggregation. […] Although biosensors may be limited in reporting structural characteristics of fibril progeny, they offer exquisitely sensitive measures of tau seeding activity—the ability for fibrils to recruit monomeric protein into fibrillar form, which is thought to be the mechanism for tau spreading in AD.\nHuman autopsy samples were obtained by the Mayo Clinic Brain Bank and UCLA Pathology Department according to HHS regulations from patients consenting to autopsy. Samples were provided to the researchers of this study as anonymized tissues. For purification of paired helical filaments (PHFs) and straight filaments (SFs) from AD brain tissue, extractions were performed according to the previously published protocol without any modifications. […] For biosensor seeding assays with crude AD brain extracts, fresh-frozen tissue from neuropathologically confirmed AD cases was thawed and cut into a 0.2–0.3 g sections. Tissue was manually homogenized in a 15 ml disposable tube in 1 ml of 50 mM Tris, pH 7.4 with 150 mM NaCl, and then aliquoted to PCR tubes and sonicated in a cuphorn bath for 120 min under 30% power at 4 °C in a recirculating ice water bath, according to reference.\nHEK293T cell lines stably expressing tau-K18 P301S-eYFP were obtained from Marc Diamond[25] and used without further characterization or authentication. […] Inhibitors were dissolved in DMSO. […] After twenty minutes, 10 µl of fibrils were added to 90 µl of tau biosensor cells. The number of seeded aggregates was determined by imaging the entire well of a 96-well plate in triplicate using a Celigo Image Cytometer (Nexcelom) in the YFP channel. The number of aggregates in a given image was determined using an ImageJ 2.3.0[50] script, which subtracts the background fluorescence from unseeded cells, and then counts the number of aggregates as peaks with fluorescence above the background using the built-in Particle Analyzer. The number of aggregates was normalized to the confluence of each well, and dose-response plots were generated by calculating the average and standard deviations from triplicate measurements.", "note": "Values joined by “and” are separate entries in the source; they are usually repeats but may differ in a detail not shown here. Identical values can stand only once."}
{"compound": "CC1=C(C(=O)Nc2cccc(C)n2)C(c2ccccc2C)C2=C(CCCC2=O)N1", "note": "(centres unmarked) [CNS-6, 2-methyl-4-(2-methylphenyl)-N-(6-methyl-2-pyridinyl)-5-oxo-1,4,5,6,7,8-hexahydro-3-quinolinecarboxamide]", "values": [{"measurement": "Number of seeded aggregates in tau biosensor cells (normalized to confluence), Fig. 2e", "setting": "listed as 6343767", "result": "6727.54 and 6497.71 and 11400"}]}
{"compound": "CO[C@H]1C[C@@H]2CC[C@@H](C)[C@@](O)(O2)C(=O)C(=O)N2CCCC[C@H]2C(=O)O[C@H]([C@H](C)C[C@@H]2CC[C@@H](OCCO)[C@H](OC)C2)CC(=O)[C@H](C)/C=C(\\C)[C@@H](O)[C@@H](OC)C(=O)[C@H](C)C[C@H](C)/C=C/C=C/C=C/1C", "note": "[FDA-A-7, Everolimus]", "values": [{"measurement": "Number of seeded aggregates in tau biosensor cells (normalized to confluence), Fig. 2e", "result": "3758.68 and 4378.2 and 11639.6"}]}
{"compound": "CCCCCCCCCC(=O)OCCN1CCN(CCCN2c3ccccc3Sc3ccc(C(F)(F)F)cc32)CC1", "note": "[FDA-R-15, Prolixin decanoate]", "values": [{"measurement": "Number of seeded aggregates in tau biosensor cells (normalized to confluence), Fig. 2e", "setting": "listed as Prolixin decanoate aka fluphenazine", "result": "15859.2 and 19243.3 and 27665.8"}]}
{"compound": "CN(C)CCCN1c2ccccc2CCc2ccccc21", "note": "[FDA-R-24, Imipramine]", "values": [{"measurement": "Number of seeded aggregates in tau biosensor cells (normalized to confluence), Fig. 2e", "result": 13643.9}]}
{"compound": "Oc1c(Cl)cc(Cl)c2cccnc12", "note": "[5,7-dichloro-8-quinolinol AKA Chloroxine, 5,7-dichloro-8-quinolinol]", "values": [{"measurement": "Number of seeded aggregates in tau biosensor cells (normalized to confluence), Fig. 2e", "result": "8929.14 and 10028.6 and 22099.9"}]}
{"compound": "CNC(=C[N+](=O)[O-])NCCSCc1csc(CN(C)C)n1", "note": "[FDA-R-7, Nizatidine]", "values": [{"measurement": "Number of seeded aggregates in tau biosensor cells (normalized to confluence), Fig. 2e", "result": "6548.12 and 9220.9 and 15017.2"}]}
{"compound": "Cc1ccc(-n2nccn2)c(C(=O)N2CCN(c3nc4cc(Cl)ccc4o3)CC[C@H]2C)c1", "note": "[FDA-A-20, Suvorexant]", "values": [{"measurement": "Number of seeded aggregates in tau biosensor cells (normalized to confluence), Fig. 2e", "result": "10609.4 and 12014.6 and 14701.5"}]}
{"compound": "C[C@]12C=CC(=O)N[C@@H]1CC[C@@H]1[C@@H]2CC[C@]2(C)[C@@H](C(=O)Nc3cc(C(F)(F)F)ccc3C(F)(F)F)CC[C@@H]12", "note": "[FDA-A-9, Dutasteride]", "values": [{"measurement": "Number of seeded aggregates in tau biosensor cells (normalized to confluence), Fig. 2e", "result": "6197.61 and 4567.33 and 9824.67"}]}
{"compound": "C[C@@H]1C/C=C/C=C/C=C/C=C/[C@H](O[C@@H]2O[C@H](C)[C@@H](O)[C@H](N)[C@@H]2O)C[C@@H]2O[C@](O)(C[C@@H](O)C[C@H]3O[C@@H]3/C=C/C(=O)O1)C[C@H](O)[C@H]2C(=O)O", "note": "[FDA-R-19, Natamycin]", "values": [{"measurement": "Number of seeded aggregates in tau biosensor cells (normalized to confluence), Fig. 2e", "result": "9211.55 and 6199.61 and 13007.3"}]}
{"compound": "Cc1cccc(-c2noc(-c3ccccc3C(=O)NCc3cccnc3)n2)c1", "note": "[CNS-24, 2-[3-(3-methylphenyl)-1,2,4-oxadiazol-5-yl]-N-(3-pyridinylmethyl)benzamide]", "values": [{"measurement": "Number of seeded aggregates in tau biosensor cells (normalized to confluence), Fig. 2e", "setting": "listed as 9002758", "result": "4798.71 and 2194.24 and 9734.93"}]}
{"compound": "COc1ccc2c(c1)C(=O)N(CCc1ccc(S(=O)(=O)NC(=O)NC3CCCCC3)cc1)C(=O)C2(C)C", "note": "[FDA-R-2, Gliquidone]", "values": [{"measurement": "Number of seeded aggregates in tau biosensor cells (normalized to confluence), Fig. 2e", "result": "7523.16 and 6557.51 and 13245"}]}
{"compound": "N#Cc1c2c(n3cc4ccccc4cc13)C(=O)c1ccccc1C2=O", "note": "[CNS-20, 5,14-dioxo-5,14-dihydrobenzo[5,6]indolo[1,2-b]isoquinoline-13-carbonitrile]", "values": [{"measurement": "Number of seeded aggregates in tau biosensor cells (normalized to confluence), Fig. 2e", "setting": "listed as 7663820", "result": "40070.2 and 48758.2 and 61897.7"}]}
{"compound": "O=C(c1cc2cc(Br)ccc2oc1=O)N1CCc2ccccc2C1", "note": "[CNS-10, 6-bromo-3-(3,4-dihydro-2(1H)-isoquinolinylcarbonyl)-2H-chromen-2-one]", "values": [{"measurement": "Number of seeded aggregates in tau biosensor cells (normalized to confluence), Fig. 2e", "setting": "listed as 6991358", "result": "4869.84 and 6105.12 and 9256.09"}]}
{"compound": "CC1=C(C/C=C(\\C)CCC[C@H](C)CCC[C@H](C)CCCC(C)C)C(=O)c2ccccc2C1=O", "note": "[FDA-R-9, Phytonadione]", "values": [{"measurement": "Number of seeded aggregates in tau biosensor cells (normalized to confluence), Fig. 2e", "result": "7414.6 and 8137.54 and 11548.1"}]}
{"compound": "CCC(NC(C)C)C(O)c1ccc(O)c(O)c1", "note": "(centres unmarked) [FDA-R-14, Isoetharine]", "values": [{"measurement": "Number of seeded aggregates in tau biosensor cells (normalized to confluence), Fig. 2e", "setting": "listed as Isoetharine mesylate", "result": "7986.42 and 10421.3 and 17350.6"}]}
{"compound": "CC1=C(C(=O)Nc2ccccn2)C(c2ccc(F)cc2)C2=C(CCCC2=O)N1", "note": "(centres unmarked) [CNS-4, 4-(4-fluorophenyl)-2-methyl-5-oxo-N-2-pyridinyl-1,4,5,6,7,8-hexahydro-3-quinolinecarboxamide]", "values": [{"measurement": "Number of seeded aggregates in tau biosensor cells (normalized to confluence), Fig. 2e", "setting": "listed as 6317572", "result": "8103.61 and 7551.45 and 17671.3"}]}
{"compound": "CC(=O)Nc1cc(-c2nn(C)c(=O)c3ccccc23)ccc1N1CCCCC1", "note": "[CNS-19, N-[5-(3-methyl-4-oxo-3,4-dihydro-1-phthalazinyl)-2-(1-piperidinyl)phenyl]acetamide]", "values": [{"measurement": "Number of seeded aggregates in tau biosensor cells (normalized to confluence), Fig. 2e", "setting": "listed as 7520752", "result": "9057.73 and 5534.89 and 16287.3"}]}
{"compound": "O=C(O)c1cc(=O)c2c(OCC(O)COc3cccc4oc(C(=O)O)cc(=O)c34)cccc2o1", "note": "[FDA-R-23, Sodium chromoglycate]", "values": [{"measurement": "Number of seeded aggregates in tau biosensor cells (normalized to confluence), Fig. 2e", "setting": "listed as cromolyn sodium", "result": "8238.89 and 9556.51 and 14800.8"}]}
{"compound": "CC1=NN(c2ccc(C)c(C)c2)C(=O)/C1=N\\Nc1cccc(-c2cccc(C(=O)O)c2)c1O", "note": "[FDA-A-15, Eltrombopag]", "values": [{"measurement": "Number of seeded aggregates in tau biosensor cells (normalized to confluence), Fig. 2e", "result": "3758.35 and 8279.6 and 8614.09"}]}
{"compound": "C/C=C(/C)C(=O)O[C@H]1C(C)=C[C@]23C(=O)[C@@H](C=C(CO)[C@@H](O)[C@]12O)[C@H]1[C@@H](C[C@H]3C)C1(C)C", "note": "[FDA-A-13, Ingenol mebutate]", "values": [{"measurement": "Number of seeded aggregates in tau biosensor cells (normalized to confluence), Fig. 2e", "setting": "listed as ingenol-3-angelate", "result": "10027.6 and 8367.28 and 13011.7"}]}
{"compound": "CN(C)S(=O)(=O)c1ccc2c(c1)/C(=C/c1cc3c([nH]1)CCCC3)C(=O)N2", "note": "[su6656]", "values": [{"measurement": "Number of seeded aggregates in tau biosensor cells (normalized to confluence), Fig. 2e", "result": "5170.49 and 6311.14 and 10607"}]}
{"compound": "COc1cc([C@@H]2c3cc4c(cc3[C@@H](O[C@@H]3O[C@@H]5CO[C@@H](c6cccs6)O[C@H]5[C@H](O)[C@H]3O)[C@H]3COC(=O)[C@H]23)OCO4)cc(OC)c1O", "note": "[FDA-A-11, Teniposide]", "values": [{"measurement": "Number of seeded aggregates in tau biosensor cells (normalized to confluence), Fig. 2e", "result": "28315 and 23778 and 42223.8"}]}
{"compound": "CC(C)OC(=O)CCC/C=C\\C[C@@H]1[C@@H](/C=C/[C@@H](O)COc2cccc(C(F)(F)F)c2)[C@H](O)C[C@@H]1O", "note": "[FDA-R-18, Travoprost]", "values": [{"measurement": "Number of seeded aggregates in tau biosensor cells (normalized to confluence), Fig. 2e", "result": "5152.95 and 6033.26 and 10826.5"}]}
{"compound": "COc1cccc(C2C(C(=O)Nc3ccccn3)=C(C)NC3=C2C(=O)CCC3)c1", "note": "(centres unmarked) [CNS-5, 4-(3-methoxyphenyl)-2-methyl-5-oxo-N-2-pyridinyl-1,4,5,6,7,8-hexahydro-3-quinolinecarboxamide]", "values": [{"measurement": "Number of seeded aggregates in tau biosensor cells (normalized to confluence), Fig. 2e", "setting": "listed as 6327117", "result": "5790.63 and 5091.84 and 10386.8"}]}
{"compound": "Cc1ccc(S(=O)(=O)N(C(F)F)C(C)(C)C)cc1", "note": "[CNS-9, N-(tert-butyl)-N-(difluoromethyl)-4-methylbenzenesulfonamide]", "values": [{"measurement": "Number of seeded aggregates in tau biosensor cells (normalized to confluence), Fig. 2e", "setting": "listed as 6933498", "result": "6268.06 and 9513.63 and 13394.2"}]}
{"compound": "Cc1ccc(N2C(=O)CC(n3cnc4ccccc43)C2=O)c(C)c1", "note": "(centres unmarked) [CNS-22, 3-(1H-benzimidazol-1-yl)-1-(2,4-dimethylphenyl)-2,5-pyrrolidinedione]", "values": [{"measurement": "Number of seeded aggregates in tau biosensor cells (normalized to confluence), Fig. 2e", "setting": "listed as 7729218", "result": "7077.98 and 8551.58 and 10715.2"}]}
